Laboratory results taken from paper PMC8036666, “Biological and Physico-Chemical Characteristics of Arginine-Rich Peptide Gemini Surfactants with Lysine and Cystine Spacers” (International Journal of Molecular Sciences, 2021).
≈ marks a conversion by molar mass, not a printed value. Like-named read-outs stand apart in the source and are kept apart here. Where a SMILES comes first, the peptide text is derived from it. Bridges are numbered along the chain shown (N, C = ends). Roman numbers before positions name the chains, in order. Side-chain parts run from the residue outwards. [ ]: non-standard residue; d: D form. The star is where a group is joined. Myristoyl = CCCCCCCCCCCCCC(=O)*; Lauroyl = CCCCCCCCCCCC(=O)*; Decanoyl = CCCCCCCCCC(=O)*; Nle = CCCC[C@H](N)C(=O)O; Octanoyl = CCCCCCCC(=O)*

How the values were obtained:
[1] = system: Staphylococcus aureus ATCC 33591
Protocol: The Acinetobacter baumannii ATCC BAA-1605, Enterococcus faecium ATCC 700221, Escherichia coli ML-35 ATCC 43827, Klebsiella aerogenes ATCC 13048, Klebsiella pneumoniae ATCC 700603, Pseudomonas aeruginosa ATCC 9027, Staphylococcus aureus ATCC 25923, Staphylococcus aureus ATCC 33591, Candida albicans ATCC 10231, Candida glabrata ATCC 15126, strains were acquired from the American Type Culture Collection (ATCC). All the strains were stored at −80 °C in Roti-Store cryo vials and before the tests were transferred into fresh Mueller–Hinton broth (MHB, Biocorp, Warsaw, […], Steinheim, Germany) for fungi and incubated for 24 h at 37 °C. Then, the cultures were seeded on the Mueller–Hinton agar (BioMaxima, Lublin, Poland) or Sabouraud dextrose agar (SDA, BioMaxima, Lublin, Poland) plates, respectively, and incubated as just mentioned. These agar cultures were used for further microbiological assays. […]
(§1) The MICs were determined by the broth microdilution method according to the Clinical and Laboratory Standard Institute guidelines. […] The experiments were conducted on 96-well microtiter polystyrene plates (Kartell, Noviglio, Italy). The growth was assessed visually after incubation, and the MIC was assumed as the lowest peptide concentration at which a noticeable growth of microorganisms was inhibited. All experiments were conducted in triplicate.

[2] = system: Acinetobacter baumannii ATCC BAA 1605; conditions: ATCC BAA 1605, 24 h
Protocol: (§2) The Acinetobacter baumannii ATCC BAA-1605, Enterococcus faecium ATCC 700221, Escherichia coli ML-35 ATCC 43827, Klebsiella aerogenes ATCC 13048, Klebsiella pneumoniae ATCC 700603, Pseudomonas aeruginosa ATCC 9027, Staphylococcus aureus ATCC 25923, Staphylococcus aureus ATCC 33591, Candida albicans ATCC 10231, Candida glabrata ATCC 15126, strains were acquired from the American Type Culture Collection (ATCC). All the strains were stored at −80 °C in Roti-Store cryo vials and before the tests were transferred into fresh Mueller–Hinton broth (MHB, Biocorp, Warsaw, Poland) for bacteria or RPMI-1640 (Sigma-Aldrich, Steinheim, Germany) for fungi and incubated for 24 h at 37 °C. Then, the cultures were seeded on the Mueller–Hinton agar (BioMaxima, Lublin, Poland) or Sabouraud dextrose agar (SDA, BioMaxima, Lublin, Poland) plates, respectively, and incubated as just mentioned. These agar cultures were used for further microbiological assays. Cell densities for all assays were adjusted spectrophotometrically (Multiskan GO Microplate Spectrophotometer, Thermo Fisher Scientific, Vantaa, Finland) at 600 and 530 nm for bacteria and fungi, respectively.
as §1

[3] = system: Enterococcus faecium ATCC 700221
Protocol: as §2, §1

[4] = system: Klebsiella aerogenes ATCC 13048; conditions: ATCC 13048, 24 h
Protocol: as §2, §1

[5] = system: Klebsiella pneumoniae ATCC 700603; conditions: ATCC 700603, 24 h
Protocol: as §2, §1

[6] = system: Pseudomonas aeruginosa ATCC 9027
Protocol: as §2, §1

[7] = system: Staphylococcus aureus ATCC 25923
Protocol: as §2, §1

[8] = system: C. albicans ATCC 10231
Protocol: as §2
(§3) The MICs were determined by the broth microdilution method according to the Clinical and Laboratory Standard Institute guidelines. For this purpose, initial inoculums of bacteria (5 × 10^5 CFU/mL) in MHB and yeasts (2 × 10^3 CFU/mL) in RPMI-1640 with 2% D-glucose were exposed to the ranging concentration of lipopeptides (0.5–256 μg/mL) and incubated at 37 °C for 18 h and 24 h, respectively. The experiments were conducted on 96-well microtiter polystyrene plates (Kartell, Noviglio, Italy). The growth was assessed visually after incubation, and the MIC was assumed as the lowest peptide concentration at which a noticeable growth of microorganisms was inhibited. All experiments were conducted in triplicate.

[9] = system: C. glabrata ATCC 15126
Protocol: as §2, §3

[10] = system: human red blood cells (hRBCs); assay: Hemolysis assay; assay type: cell-based; conditions: red cells of human, 1 h
Protocol: The hemolysis assay was performed by using the method reported previously. Fresh human red blood cells (hRBCs) with anticoagulant (EDTA) were rinsed three times with a PBS by centrifugation at 800× g for 10 min and diluted with PBS. The compounds were serially diluted on a 96-well microtiter polystyrene plate, and hRBCs were added up to a final volume of 100 μL. The compound concentration ranged between 0.5 and 256 μg/mL and the final hRBCs concentration was 4% (v/v). Controls for zero (blank) and 100% hemolysis consisted of hRBCs suspended in PBS and 1% of Triton-X 100 (Carl Roth GmbH, Karlsruhe, Germany), respectively. The plate was incubated for 1 h at 37 °C and then centrifuged (800× g, 10 min, 4 °C). Subsequently, the supernatant was […] to new microtiter plates, and the absorbance at 540 nm was measured (Multiskan GO Microplate Spectrophotometer, Thermo Fisher Scientific, Vantaa, Finland). All experiments were conducted in triplicate. HC50 was calculated using an ic50.tk tool. The protocol of the study was approved by the local Bioethics Committee at the Medical University of Gdańsk (NKBBN/262/2019, approval date: 10 June 2019).

Structure (SMILES) | MIC Staphylococcus aureus ATCC 33591 ([1]; planktonic culture) | MIC Acinetobacter baumannii ATCC BAA 1605 [2] | MIC Enterococcus faecium ATCC 700221 ([3]; planktonic culture) | MIC Klebsiella aerogenes ATCC 13048 [4] | MIC Klebsiella pneumoniae ATCC 700603 [5] | MIC Pseudomonas aeruginosa ATCC 9027 ([6]; planktonic culture) | MIC Staphylococcus aureus ATCC 25923 ([7]; planktonic culture) | MIC C. albicans ATCC 10231 ([8]; planktonic culture) | MIC C. glabrata ATCC 15126 ([9]; planktonic culture) | MIC Staphylococcus aureus ATCC 33591 ([1]; ATCC 33591, 24 h) [µg/mL] | MIC Enterococcus faecium ATCC 700221 ([3]; ATCC 700221, 24 h) [µg/mL] | MIC Pseudomonas aeruginosa ATCC 9027 ([6]; ATCC 9027, 24 h) [µg/mL] | MIC Staphylococcus aureus ATCC 25923 ([7]; ATCC 25923, 24 h) [µg/mL] | MIC C. albicans ATCC 10231 ([8]; ATCC 10231, 24 h) [µg/mL] | MIC C. glabrata ATCC 15126 ([9]; ATCC 15126, 24 h) [µg/mL] | HC50 [10] [µg/mL]
CCCCCCCC(=O)N[C@@H](CCCNC(=N)N)C(=O)N[C@@H](CCCNC(=N)N)C(N)=O [Compound A1, C8-RR-NH2] (Octanoyl-Arg-Arg-NH2) | >256 (−/−) µg/mL | >256 (−/−) µg/mL | >256 (−/−) µg/mL | >256 (−/−) µg/mL | >256 (−/−) µg/mL | >256 (−/−) µg/mL | >256 (−/−) µg/mL | >256 (−/−) µg/mL | >256 (−/−) µg/mL | – | – | – | – | – | – | –
CCCCCCCCCC(=O)N[C@@H](CCCNC(=N)N)C(=O)N[C@@H](CCCNC(=N)N)C(N)=O [Compound A2, C10-RR-NH2] (Decanoyl-Arg-Arg-NH2) | 256 (−/−) µg/mL | >256 (−/−) µg/mL | 256 (−/−) µg/mL | >256 (−/−) µg/mL | >256 (−/−) µg/mL | >256 (−/−) µg/mL | 256 (−/−) µg/mL | >256 (−/−) µg/mL | >256 (−/−) µg/mL | – | – | – | – | – | – | –
CCCCCCCCCCCC(=O)N[C@@H](CCCNC(=N)N)C(=O)N[C@@H](CCCNC(=N)N)C(N)=O [Compound A3, C12-RR-NH2] (Lauroyl-Arg-Arg-NH2) | – | 256 (−/−) µg/mL | – | >256 (−/−) µg/mL | >256 (−/−) µg/mL | – | – | – | – | 32 (≈ 62.5 µM) | 32 (≈ 62.5 µM) | 128 (≈ 250 µM) | 32 (≈ 62.5 µM) | 64 (≈ 125 µM) | 128 (≈ 250 µM) | –
CCCCCCCCCC(=O)N[C@@H](CCCNC(=N)N)C(=O)N[C@@H](CCCNC(=N)N)C(=O)NCCCC[C@H](NC(=O)[C@H](CCCNC(=N)N)NC(=O)[C@H](CCCNC(=N)N)NC(=O)CCCCCCCCC)C(N)=O [Compound B2] (Decanoyl-Arg-Arg-Lys([Arg-Arg-Decanoyl])-NH2) | – | 8 µg/mL (≈ 7.42 µM) | – | 128 µg/mL (≈ 119 µM) | 128 µg/mL (≈ 119 µM) | – | – | – | – | 1 (≈ 0.927 µM) | 2 (≈ 1.85 µM) | 8 (≈ 7.42 µM) | 1 (≈ 0.927 µM) | 8 (≈ 7.42 µM) | 4 (≈ 3.71 µM) | >256

Further lines, with some results ahead:

MIC Staphylococcus aureus ATCC 33591 ([1]; planktonic culture) | MIC Acinetobacter baumannii ATCC BAA 1605 [2] | MIC Enterococcus faecium ATCC 700221 ([3]; planktonic culture) | MIC Klebsiella aerogenes ATCC 13048 [4] | MIC Klebsiella pneumoniae ATCC 700603 [5] | MIC Pseudomonas aeruginosa ATCC 9027 ([6]; planktonic culture) | MIC Staphylococcus aureus ATCC 25923 ([7]; planktonic culture) | MIC C. albicans ATCC 10231 ([8]; planktonic culture) | MIC C. glabrata ATCC 15126 ([9]; planktonic culture) | MIC Staphylococcus aureus ATCC 33591 ([1]; ATCC 33591, 24 h) [µg/mL] | MIC Enterococcus faecium ATCC 700221 ([3]; ATCC 700221, 24 h) [µg/mL] | MIC Pseudomonas aeruginosa ATCC 9027 ([6]; ATCC 9027, 24 h) [µg/mL] | MIC Staphylococcus aureus ATCC 25923 ([7]; ATCC 25923, 24 h) [µg/mL] | MIC C. albicans ATCC 10231 ([8]; ATCC 10231, 24 h) [µg/mL] | MIC C. glabrata ATCC 15126 ([9]; ATCC 15126, 24 h) [µg/mL] | Structure (SMILES) | HC50 [10] [µg/mL]
– | 256 (−/−) µg/mL | – | >256 (−/−) µg/mL | >256 (−/−) µg/mL | – | – | – | – | 8 (≈ 7.83 µM) | 64 (≈ 62.6 µM) | 32 (≈ 31.3 µM) | 4 (≈ 3.91 µM) | 64 (≈ 62.6 µM) | 64 (≈ 62.6 µM) | CCCCCCCC(=O)N[C@@H](CCCNC(=N)N)C(=O)N[C@@H](CCCNC(=N)N)C(=O)NCCCC[C@H](NC(=O)[C@H](CCCNC(=N)N)NC(=O)[C@H](CCCNC(=N)N)NC(=O)CCCCCCC)C(N)=O [Compound B1] (Octanoyl-Arg-Arg-Lys([Arg-Arg-Octanoyl])-NH2) | >256
– | 64 µg/mL (≈ 53.8 µM) | – | 32 µg/mL (≈ 26.9 µM) | 32 µg/mL (≈ 26.9 µM) | – | – | – | – | 64 (≈ 53.8 µM) | 8 (≈ 6.72 µM) | 32 (≈ 26.9 µM) | 64 (≈ 53.8 µM) | 4 (≈ 3.36 µM) | 2 (≈ 1.68 µM) | CCCCCCCCCCCCCC(=O)N[C@@H](CCCNC(=N)N)C(=O)N[C@@H](CCCNC(=N)N)C(=O)NCCCC[C@H](NC(=O)[C@H](CCCNC(=N)N)NC(=O)[C@H](CCCNC(=N)N)NC(=O)CCCCCCCCCCCCC)C(N)=O [Compound B4] (Myristoyl-Arg-Arg-Lys([Arg-Arg-Myristoyl])-NH2) | 44.12 ± 4.70
– | 32 µg/mL (≈ 24.3 µM) | – | 256 (−/−) µg/mL | 128 µg/mL (≈ 97.2 µM) | – | – | – | – | 4 (≈ 3.04 µM) | 4 (≈ 3.04 µM) | 8 (≈ 6.08 µM) | 2 (≈ 1.52 µM) | 16 (≈ 12.2 µM) | 16 (≈ 12.2 µM) | CCCCCCCC(=O)N[C@@H](Cc1ccccc1)C(=O)N[C@@H](CCCNC(=N)N)C(=O)N[C@@H](CCCNC(=N)N)C(=O)NCCCC[C@H](NC(=O)[C@H](CCCNC(=N)N)NC(=O)[C@H](CCCNC(=N)N)NC(=O)[C@H](Cc1ccccc1)NC(=O)CCCCCCC)C(N)=O [Compound B5] (Octanoyl-FRRK([Arg-Arg-Phe-Octanoyl])-NH2) | 181.38 ± 8.99
– | 32 µg/mL (≈ 25.6 µM) | – | 256 (−/−) µg/mL | 64 µg/mL (≈ 51.3 µM) | – | – | – | – | 4 (≈ 3.2 µM) | 2 (≈ 1.6 µM) | 4 (≈ 3.2 µM) | 2 (≈ 1.6 µM) | 16 (≈ 12.8 µM) | 16 (≈ 12.8 µM) | CCCCCCCC(=O)N[C@@H](CCCC)C(=O)N[C@@H](CCCNC(=N)N)C(=O)N[C@@H](CCCNC(=N)N)C(=O)NCCCC[C@H](NC(=O)[C@H](CCCNC(=N)N)NC(=O)[C@H](CCCNC(=N)N)NC(=O)[C@H](CCCC)NC(=O)CCCCCCC)C(N)=O [Compound B6] (Octanoyl-[Nle]RRK([Arg-Arg-Nle-Octanoyl])-NH2) | >256
– | 256 (−/−) µg/mL | – | >256 (−/−) µg/mL | >256 (−/−) µg/mL | – | – | – | – | 16 (≈ 14.3 µM) | 32 (≈ 28.7 µM) | 64 (≈ 57.4 µM) | 8 (≈ 7.17 µM) | 128 (≈ 115 µM) | 64 (≈ 57.4 µM) | CCCCCCCC(=O)N[C@@H](CCCNC(=N)N)C(=O)N[C@@H](CCCNC(=N)N)C(=O)N[C@@H](CSSC[C@H](NC(=O)[C@H](CCCNC(=N)N)NC(=O)[C@H](CCCNC(=N)N)NC(=O)CCCCCCC)C(N)=O)C(N)=O [Compound C1] (I: Octanoyl-Arg-Arg-Cys-NH2 / II: Octanoyl-Arg-Arg-Cys-NH2; disulfide I:3-II:3) | >256
